Tests used:
[1] = test system: mice subjected to bilateral renal pedicle clamping; experiment: Ischemic AKI by bilateral renal pedicle clamping (BUN, creatinine, survival); assay type: in vivo, C57BL/6J mice; conditions: 28 min bilateral pedicle clamping
From the text: All animals were maintained under the guidance and policies of the Boston University Animal Core facility using National Institutes of Health (NIH) and Institutional Animal Care and Use Committee guidelines. Male and female C57BL/6J mice were purchased from Jackson Laboratory (Bar Harbor, ME), and they were housed and bred at the Boston University Animal Core facility under license number AN-15024. […] Animas were handled in a manner consistent with the NIH guide for their care and use under Institutional Animal Care and Use Committee approval.
Mice were subjected to bilateral renal pedicle clamping after being anesthetized with 2,2,2-tribromoethanol. […] 13,28,29 Slight variation in the clamp time was required to achieve similar degrees of renal dysfunction in the relatively large number of animals studied. The clamp was then removed, and reperfusion was confirmed by visual inspection of the kidneys. Sham ischemia was performed by encircling each renal pedicle with a nonocclusive ligature.
For in vitro testing in primary human PTECs, peptides ([…]) were tested that replicate the Bax domain responsible for binding NPM,34 or two peptides designed to interfere with NPM function were compared with a random nonspecific sequence of the same length (control). Peptides intended to interfere with NPM function overlap key phosphorylation sites located at the NPM amino terminus (peptide 2) or carboxy terminus (peptide 3) detected by mass spectrometry. To improve cell uptake, all peptides contained a cell-penetrating sequence13. For in vivo experiments, a renal-targeting sequence (NLS) was added to enhance renal peptide uptake.35 Peptides were commercially synthesized (Biomatik, Wilmington, DE) J Am Soc Nephrol 30: ccc-ccc, 2018 Nucleophosmin in AKI 3www.jasn.org BASIC RESEARCHas follows: NPM-Bax blocking peptide: Ac-KKKRKV-(bA)-[…]-COOH (SEQ ID NO: 8); peptide 2: AC-PKKKRKV-(bA)-[…]-COOH (SEQ ID NO: 9); and peptide 3: AC-PKKKRKV-(bA)-ESFKK-QEKTPKTPKGPSSVED-IKAK-COOH (SEQ ID NO: 10). […] A total of 42 control and 56 experimental animals were studied.
Transient exposure to metabolic inhibitors replicates ischemia in vivo by activating Bax and causing cell death.13,29,36-38 Cell viability was assayed using a modified colorimetric technique (MTTassay).37 The number of surviving cells is expressed as a percentage of viable control cells detected at baseline. Serum BUN and creatinine levels were measured in tail vein blood samples for 7 days after ischemia using QuantiChrom BUN or creatinine assay kits (BioAssay Systems, Hayward, CA) according to the manufacturer's instructions.

[2] = test system: PTEC; experiment: Toxicity of pharmacologic agents in PTEC; assay type: cell-based; conditions: exposure to the IC50 dose for 48-72 hr; data not shown
From the text: The inventors have also tested pharmacologic agents that disrupt NPM-Bax at specific steps in the cell death pathway (outlined in FIG. 11). These agents include geronylgeronylacetone (GGA), a potent Hsp70 inducer86, avrainvillamide, and NSC34888437. […] The inventors recently reported that GGA induces Hsp70 in murine PTEC and in the intact murine kidney. Hsp70 markedly reduces NPM-Bax complex formation during ischemic stress by 2 distinct mechanisms: a nucleolar-restricted Hsp70 mutant limits NPM translocation into the cytosol, whereas a cytosol restricted Hsp70 mutant sequesters […].

For `CC(=O)CC/C=C(\C)CC/C=C(\C)CC/C=C(\C)CCC=C(C)C` [GGA, geronylgeronylacetone, reference compound], the Animal survival [1] was “all survived”, the “Mean peak BUN” value [1] was 100 m/dl and the “PTEC morphology and toxicity” value [2] was “does not alter PTEC morphology or cause significant toxicity”.

— patent US12018058B2, “Compositions and methods for diagnosing and/or treating kidney injury” (Boston Medical Center Corporation, priority 2018, dated 2024)
